Assay results: patent US11414379B2, “SPAK kinase inhibitors as neuroprotective agents” (United States Government as represented by the Department …, priority 2018, dated 2022)

What was measured:
Experiment in all cases: Kinase panel (Dundee profiling)
Format in all cases: biochemical
Details in all cases: read-out: % residual kinase activity
EPH-A2 = EPH-A2 (Homo sapiens, UniProt P29317)
In short: (§1)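 Percent residual kinase activity versus DMSO control is reported, mean±SEM of three determinations. Compound was tested at 10 μM and at 1 μM in standard radioisotopic enzyme assays with recombinant kinases.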

CDK9-Cyclin T1 = CDK9-Cyclin T1 (Homo sapiens, UniProt P50750)
In short: as §1

PIM3 = PIM3 (Homo sapiens, UniProt Q86V86)
In short: as §1

SYK = SYK (Homo sapiens, UniProt P43405)
In short: as §1

JAK2 = JAK2 (Homo sapiens, UniProt O60674)
In short: as §1

HIPK3 = HIPK3 (Homo sapiens, UniProt Q9H422)
In short: as §1

GSK3b = GSK3b (Homo sapiens, UniProt P49841)
Sequence of GSK3b (P49841 whole entry, species assumed): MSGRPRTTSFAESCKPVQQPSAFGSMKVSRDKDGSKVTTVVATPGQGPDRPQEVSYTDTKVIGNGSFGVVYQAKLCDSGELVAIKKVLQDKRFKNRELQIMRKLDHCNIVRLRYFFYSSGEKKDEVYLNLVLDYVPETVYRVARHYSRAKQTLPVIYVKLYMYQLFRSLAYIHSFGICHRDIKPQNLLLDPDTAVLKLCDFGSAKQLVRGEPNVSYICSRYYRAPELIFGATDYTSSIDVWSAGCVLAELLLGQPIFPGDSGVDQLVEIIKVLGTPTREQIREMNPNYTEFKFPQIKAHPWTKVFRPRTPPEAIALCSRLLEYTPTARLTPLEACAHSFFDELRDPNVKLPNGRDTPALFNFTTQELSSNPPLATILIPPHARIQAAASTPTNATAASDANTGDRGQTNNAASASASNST
In short: as §1

MARK2 = MARK2 (Homo sapiens, UniProt Q7KZI7)
In short: as §1

ULK1 = ULK1 (Homo sapiens, UniProt O75385)
In short: as §1

NUAK1 = NUAK1 (Homo sapiens, UniProt O60285)
In short: as §1

MAP4K3 = MAP4K3 (Homo sapiens, UniProt Q8IVH8)
In short: as §1

MARK3 = MARK3 (Homo sapiens, UniProt P27448)
In short: as §1

TAK1 = TAK1 (Homo sapiens, UniProt O43318)
Sequence of TAK1 (O43318 1-303 limits assumed): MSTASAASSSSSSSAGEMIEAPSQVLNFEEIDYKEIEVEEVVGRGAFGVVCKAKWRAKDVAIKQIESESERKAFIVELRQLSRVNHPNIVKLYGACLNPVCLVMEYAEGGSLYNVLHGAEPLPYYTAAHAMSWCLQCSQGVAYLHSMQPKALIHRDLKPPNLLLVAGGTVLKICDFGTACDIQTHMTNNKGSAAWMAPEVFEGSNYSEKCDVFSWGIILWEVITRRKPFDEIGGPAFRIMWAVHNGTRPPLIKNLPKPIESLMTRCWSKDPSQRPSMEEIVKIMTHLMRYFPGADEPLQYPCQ
Sequence of TAK1 (Q15750 437-504 partner limits assumed): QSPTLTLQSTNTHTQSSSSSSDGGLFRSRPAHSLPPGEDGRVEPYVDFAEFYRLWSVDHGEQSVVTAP
In short: as §1

WNK1 = WNK1 (Homo sapiens, UniProt Q9H4A3)
Sequence of WNK1 (Q9H4A3 whole entry, species assumed): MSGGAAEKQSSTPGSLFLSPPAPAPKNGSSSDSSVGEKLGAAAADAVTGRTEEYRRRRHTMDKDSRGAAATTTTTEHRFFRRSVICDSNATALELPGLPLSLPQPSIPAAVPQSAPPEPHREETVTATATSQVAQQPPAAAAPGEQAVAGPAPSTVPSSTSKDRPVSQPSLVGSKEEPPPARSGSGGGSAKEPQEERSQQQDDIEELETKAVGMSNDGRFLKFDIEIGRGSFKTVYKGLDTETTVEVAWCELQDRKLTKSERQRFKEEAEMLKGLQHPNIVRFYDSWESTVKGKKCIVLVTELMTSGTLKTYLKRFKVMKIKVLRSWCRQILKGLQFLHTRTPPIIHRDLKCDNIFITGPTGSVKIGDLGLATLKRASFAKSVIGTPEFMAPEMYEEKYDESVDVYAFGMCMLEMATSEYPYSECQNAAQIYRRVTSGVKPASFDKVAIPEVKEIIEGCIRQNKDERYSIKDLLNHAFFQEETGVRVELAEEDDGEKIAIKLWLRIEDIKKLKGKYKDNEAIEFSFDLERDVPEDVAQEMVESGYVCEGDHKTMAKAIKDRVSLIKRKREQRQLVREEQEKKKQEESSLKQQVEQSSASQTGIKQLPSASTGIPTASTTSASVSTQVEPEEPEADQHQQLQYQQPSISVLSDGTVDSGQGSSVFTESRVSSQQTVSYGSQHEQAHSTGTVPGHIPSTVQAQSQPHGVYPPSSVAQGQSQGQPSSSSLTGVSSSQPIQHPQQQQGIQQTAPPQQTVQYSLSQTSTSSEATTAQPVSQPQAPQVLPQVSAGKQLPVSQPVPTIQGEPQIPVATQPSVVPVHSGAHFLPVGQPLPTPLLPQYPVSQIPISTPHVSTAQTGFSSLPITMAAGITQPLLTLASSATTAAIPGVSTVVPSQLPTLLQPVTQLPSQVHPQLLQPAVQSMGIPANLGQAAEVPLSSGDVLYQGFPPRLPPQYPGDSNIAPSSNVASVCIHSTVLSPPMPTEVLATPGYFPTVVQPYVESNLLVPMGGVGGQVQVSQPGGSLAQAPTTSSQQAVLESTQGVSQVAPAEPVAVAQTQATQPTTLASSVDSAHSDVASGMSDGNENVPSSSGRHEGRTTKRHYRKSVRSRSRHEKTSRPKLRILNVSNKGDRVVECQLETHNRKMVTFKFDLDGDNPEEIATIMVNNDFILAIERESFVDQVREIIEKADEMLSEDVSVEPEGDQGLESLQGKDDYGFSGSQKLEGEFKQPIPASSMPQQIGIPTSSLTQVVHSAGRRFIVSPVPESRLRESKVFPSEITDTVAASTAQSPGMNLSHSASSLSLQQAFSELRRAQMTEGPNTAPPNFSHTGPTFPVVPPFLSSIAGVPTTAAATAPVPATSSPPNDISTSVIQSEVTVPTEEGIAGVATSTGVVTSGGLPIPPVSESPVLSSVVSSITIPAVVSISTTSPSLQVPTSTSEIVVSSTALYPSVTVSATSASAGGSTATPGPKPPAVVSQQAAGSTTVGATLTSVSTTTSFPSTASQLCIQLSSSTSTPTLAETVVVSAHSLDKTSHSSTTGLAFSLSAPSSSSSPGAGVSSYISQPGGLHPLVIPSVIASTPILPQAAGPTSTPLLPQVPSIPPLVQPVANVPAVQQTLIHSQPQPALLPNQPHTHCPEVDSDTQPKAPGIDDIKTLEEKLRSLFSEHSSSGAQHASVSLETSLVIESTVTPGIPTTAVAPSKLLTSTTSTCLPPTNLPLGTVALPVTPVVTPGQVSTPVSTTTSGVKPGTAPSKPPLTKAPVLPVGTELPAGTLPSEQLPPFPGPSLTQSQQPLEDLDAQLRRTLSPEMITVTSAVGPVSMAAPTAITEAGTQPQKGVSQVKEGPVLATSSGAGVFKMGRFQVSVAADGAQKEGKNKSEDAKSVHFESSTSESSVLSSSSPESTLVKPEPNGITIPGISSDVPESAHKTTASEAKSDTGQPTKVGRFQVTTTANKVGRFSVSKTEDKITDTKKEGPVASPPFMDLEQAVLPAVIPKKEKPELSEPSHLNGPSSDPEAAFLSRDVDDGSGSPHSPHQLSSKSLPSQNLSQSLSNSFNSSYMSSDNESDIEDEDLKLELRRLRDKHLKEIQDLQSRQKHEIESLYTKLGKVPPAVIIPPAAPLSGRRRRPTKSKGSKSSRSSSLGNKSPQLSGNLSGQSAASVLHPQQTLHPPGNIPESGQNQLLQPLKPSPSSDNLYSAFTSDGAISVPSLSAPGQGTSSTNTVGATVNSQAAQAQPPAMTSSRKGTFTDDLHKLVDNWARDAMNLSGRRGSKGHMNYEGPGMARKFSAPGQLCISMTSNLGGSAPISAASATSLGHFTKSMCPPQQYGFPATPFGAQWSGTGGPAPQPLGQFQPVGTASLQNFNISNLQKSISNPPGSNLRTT
In short: as §1

PKBb = PKBb (Homo sapiens, UniProt P31751)
In short: as §1

PIM2 = PIM2 (Homo sapiens, UniProt Q9P1W9)
In short: as §1

JNK1 = JNK1 (Homo sapiens, UniProt P45983)
In short: as §1

ROCK2 = ROCK2 (Rattus norvegicus, UniProt Q62868)
In short: as §1

p38a MAPK = p38a MAPK (Homo sapiens, UniProt Q16539)
In short: as §1

PKA = PKA (Homo sapiens, UniProt P17612)
In short: as §1

Src = Src (Homo sapiens, UniProt P12931)
In short: as §1

MSK1 = MSK1 (Homo sapiens, UniProt O75582)
In short: as §1

PKD1 = PKD1 (Homo sapiens, UniProt Q15139)
In short: as §1

MAPKAP-K3 = MAPKAP-K3 (Homo sapiens, UniProt Q16644)
In short: as §1

TESK1 = TESK1 (Homo sapiens, UniProt Q15569)
In short: as §1

OSR1 = OSR1 (Homo sapiens, UniProt O95747)
Sequence of OSR1 (O95747 whole entry): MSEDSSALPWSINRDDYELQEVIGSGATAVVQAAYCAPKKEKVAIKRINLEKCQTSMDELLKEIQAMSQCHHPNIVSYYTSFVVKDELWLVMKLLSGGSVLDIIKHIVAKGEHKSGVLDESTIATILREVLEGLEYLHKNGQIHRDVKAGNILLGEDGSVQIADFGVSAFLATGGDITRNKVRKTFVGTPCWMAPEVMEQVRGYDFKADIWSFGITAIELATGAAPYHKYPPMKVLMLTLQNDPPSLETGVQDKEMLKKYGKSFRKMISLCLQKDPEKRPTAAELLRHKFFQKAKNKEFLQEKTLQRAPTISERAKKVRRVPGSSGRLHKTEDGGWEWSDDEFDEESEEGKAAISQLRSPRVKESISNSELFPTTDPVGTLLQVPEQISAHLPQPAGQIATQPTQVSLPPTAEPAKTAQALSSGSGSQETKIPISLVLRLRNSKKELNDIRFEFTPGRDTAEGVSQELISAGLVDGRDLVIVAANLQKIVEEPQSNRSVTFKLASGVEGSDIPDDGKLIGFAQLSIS
In short: as §1

STK33 = STK33 (Homo sapiens, UniProt Q9BYT3)
In short: as §1

p38d MAPK = p38d MAPK (Homo sapiens, UniProt O15264)
In short: as §1

JNK2 = JNK2 (Homo sapiens, UniProt P45984)
In short: as §1

IRR = IRR (Homo sapiens, UniProt P14616)
Sequence of IRR (P14616 27-1297, species assumed): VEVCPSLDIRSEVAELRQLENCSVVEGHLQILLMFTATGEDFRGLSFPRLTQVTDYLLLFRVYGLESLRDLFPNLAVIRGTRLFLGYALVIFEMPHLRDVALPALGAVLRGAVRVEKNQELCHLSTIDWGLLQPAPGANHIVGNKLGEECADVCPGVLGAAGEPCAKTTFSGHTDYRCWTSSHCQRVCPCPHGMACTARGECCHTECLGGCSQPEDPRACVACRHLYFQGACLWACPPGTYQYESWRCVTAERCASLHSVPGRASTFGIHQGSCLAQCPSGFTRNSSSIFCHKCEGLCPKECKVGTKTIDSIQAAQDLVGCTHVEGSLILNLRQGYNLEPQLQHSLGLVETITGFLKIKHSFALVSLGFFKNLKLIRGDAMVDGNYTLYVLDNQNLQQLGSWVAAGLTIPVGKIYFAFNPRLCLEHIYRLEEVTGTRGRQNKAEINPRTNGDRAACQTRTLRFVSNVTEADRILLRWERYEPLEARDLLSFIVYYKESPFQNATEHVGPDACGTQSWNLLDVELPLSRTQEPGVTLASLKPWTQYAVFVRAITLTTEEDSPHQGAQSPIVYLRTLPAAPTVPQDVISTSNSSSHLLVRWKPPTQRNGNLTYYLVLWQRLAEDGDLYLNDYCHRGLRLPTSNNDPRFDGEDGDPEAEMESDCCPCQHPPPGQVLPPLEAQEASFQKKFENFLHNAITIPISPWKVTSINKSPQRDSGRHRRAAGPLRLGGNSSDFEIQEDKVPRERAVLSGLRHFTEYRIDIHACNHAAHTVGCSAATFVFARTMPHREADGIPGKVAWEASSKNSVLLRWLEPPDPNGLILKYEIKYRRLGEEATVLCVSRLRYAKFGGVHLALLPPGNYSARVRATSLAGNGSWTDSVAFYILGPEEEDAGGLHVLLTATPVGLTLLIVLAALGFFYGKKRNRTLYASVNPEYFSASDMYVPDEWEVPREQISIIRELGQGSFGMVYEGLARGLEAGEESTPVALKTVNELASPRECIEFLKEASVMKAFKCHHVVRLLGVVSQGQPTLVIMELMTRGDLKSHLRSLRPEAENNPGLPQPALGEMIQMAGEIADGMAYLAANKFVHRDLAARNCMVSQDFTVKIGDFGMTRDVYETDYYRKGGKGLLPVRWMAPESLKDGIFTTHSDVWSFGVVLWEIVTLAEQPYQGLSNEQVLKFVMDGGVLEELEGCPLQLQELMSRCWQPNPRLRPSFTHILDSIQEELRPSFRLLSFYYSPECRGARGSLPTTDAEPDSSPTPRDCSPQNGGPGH
In short: as §1

Aurora B = Aurora B (Homo sapiens, UniProt Q96GD4)
In short: as §1

p38b MAPK = p38b MAPK (Homo sapiens, UniProt Q15759)
In short: as §1

SMILES: Cc1cc(C(C#N)c2ccc(Cl)cc2)c(Cl)cc1NC(=O)c1cc(Cl)ccc1O (stereo not shown) [ZT-1a, 5-chloro-N-(5-chloro-4-((4-chlorophenyl)(cyano)methyl)-2-methylphenyl)-2-hydroxy-benzamide]
- remaining activity at 1 µM (EPH-A2; 1 μM): 89 ± 23%
- remaining activity at 10 µM (EPH-A2; 10 μM): 78 ± 11%
- remaining activity at 1 µM (CDK9-Cyclin T1; 1 μM): 104%
- remaining activity at 10 µM (CDK9-Cyclin T1; 10 μM): 108 ± 1%
- remaining activity at 1 µM (PIM3; 1 μM): 115 ± 12%
- remaining activity at 10 µM (PIM3; 10 μM): 99 ± 2%
- remaining activity at 1 µM (SYK; 1 μM): 93 ± 12%
- remaining activity at 10 µM (SYK; 10 μM): 93 ± 1%
- remaining activity at 1 µM (JAK2; 1 μM): 125 ± 6%
- remaining activity at 10 µM (JAK2; 10 μM): 123 ± 8%
- remaining activity at 1 µM (HIPK3; 1 μM): 84 ± 3%
- remaining activity at 10 µM (HIPK3; 10 μM): 76 ± 2%
- remaining activity at 1 µM (GSK3b; 1 μM): 39 ± 4%
- remaining activity at 10 µM (GSK3b; 10 μM): 38 ± 12%
- remaining activity at 1 µM (MARK2; 1 μM): 103 ± 8%
- remaining activity at 10 µM (MARK2; 10 μM): 89 ± 15%
- remaining activity at 1 µM (ULK1; 1 μM): 87 ± 10%
- remaining activity at 10 µM (ULK1; 10 μM): 89 ± 13%
- remaining activity at 1 µM (NUAK1; 1 μM): 52 ± 7%
- remaining activity at 10 µM (NUAK1; 10 μM): 61 ± 16%
- remaining activity at 1 µM (MAP4K3; 1 μM): 134 ± 5%
- remaining activity at 10 µM (MAP4K3; 10 μM): 88 ± 2%
- remaining activity at 1 µM (MARK3; 1 μM): 71 ± 6%
- remaining activity at 10 µM (MARK3; 10 μM): 68 ± 8%
- remaining activity at 1 µM (TAK1; 1 μM): 117 ± 22%
- remaining activity at 10 µM (TAK1; 10 μM): 103 ± 5%
- remaining activity at 1 µM (WNK1; 1 μM): 125 ± 17%
- remaining activity at 10 µM (WNK1; 10 μM): 122 ± 35%
- remaining activity at 1 µM (PKBb; 1 μM): 76 ± 14%
- remaining activity at 10 µM (PKBb; 10 μM): 51 ± 13%
- remaining activity at 1 µM (PIM2; 1 μM): 93 ± 5%
- remaining activity at 10 µM (PIM2; 10 μM): 93 ± 3%
- remaining activity at 1 µM (JNK1; 1 μM): 106 ± 4%
- remaining activity at 10 µM (JNK1; 10 μM): 110 ± 5%
- remaining activity at 1 µM (ROCK2; 1 μM): 109 ± 6%
- remaining activity at 10 µM (ROCK2; 10 μM): 101 ± 10%
- remaining activity at 1 µM (p38a MAPK; 1 μM): 128 ± 7%
- remaining activity at 10 µM (p38a MAPK; 10 μM): 113 ± 2%
- remaining activity at 1 µM (PKA; 1 μM): 80 ± 11%
- remaining activity at 10 µM (PKA; 10 μM): 50 ± 2%
- remaining activity at 1 µM (Src; 1 μM): 107 ± 4%
- remaining activity at 10 µM (Src; 10 μM): 84 ± 13%
- remaining activity at 1 µM (MSK1; 1 μM): 114 ± 6%
- remaining activity at 10 µM (MSK1; 10 μM): 112 ± 14%
- remaining activity at 1 µM (PKD1; 1 μM): 89%
- remaining activity at 10 µM (PKD1; 10 μM): 79 ± 10%
- remaining activity at 1 µM (MAPKAP-K3; 1 μM): 96 ± 26%
- remaining activity at 10 µM (MAPKAP-K3; 10 μM): 72 ± 8%
- remaining activity at 1 µM (TESK1; 1 μM): 109 ± 3%
- remaining activity at 10 µM (TESK1; 10 μM): 77 ± 10%
- remaining activity at 1 µM (OSR1; 1 μM): 106 ± 9%
- remaining activity at 10 µM (OSR1; 10 μM): 98 ± 3%
- remaining activity at 1 µM (STK33; 1 μM): 114 ± 7%
- remaining activity at 10 µM (STK33; 10 μM): 100 ± 5%
- remaining activity at 1 µM (p38d MAPK; 1 μM): 95 ± 1%
- remaining activity at 10 µM (p38d MAPK; 10 μM): 112 ± 2%
- remaining activity at 1 µM (JNK2; 1 μM): 102 ± 2%
- remaining activity at 10 µM (JNK2; 10 μM): 147 ± 51%
- remaining activity at 1 µM (IRR; 1 μM): 105 ± 5%
- remaining activity at 10 µM (IRR; 10 μM): 95 ± 4%
- remaining activity at 1 µM (Aurora B; 1 μM): 119 ± 6%
- remaining activity at 10 µM (Aurora B; 10 μM): 92 ± 15%
- remaining activity at 1 µM (p38b MAPK; 1 μM): 124 ± 1%
- remaining activity at 10 µM (p38b MAPK; 10 μM): 124%
